Molecules are shown by their SMILES. Where a name gives a salt, the structure may show the parent alone.

Common to all, as to format: physicochemical
Series [1] in a line: Overall rank order of powder flowability (angle of repose and Hausner ratio). As to conditions: for Powder flowability, overall (in words): angle of repose and compressibility index/Hausner ratio combined; for Angle of Repose Rank Order / Hausner Ratio Rank Order / Overall Rank Order (Total Score): lower is better flow; for Overall Rank Order (Total Score): sum of both ranks. An excerpt: Table C5 was generated by adding the relative rank order of the 25HC3S salts for angle of repose and Hausner ratio results, and creating an Over All Rank Order of the salts powder flowability. The salts with the lower overall rank order score had better powder flowability.

Series [2] in a line: Dynamic vapor sorption (DVS), hygroscopicity. As to conditions: DVS. An excerpt: Dynamic vapor sorption (DVS) measures the uptake of a vapor (typically water) by a sample when exposed to a changing relative humidity. The loss of water can also be measured as relative humidity is decreased. Hygroscopic materials tend to absorb water more readily than non-hygroscopic. In some cases, hydrates absorb water to create higher-order hydrates (e.g., a monohydrate converting to a dihydrate when exposed to increasingly humid conditions). In some salts of the disclosure, moisture is retained upon exposure in a DVS experiment and little or no weight loss is observed upon heating from room temperature. In such experiments, the hygroscopic nature of the salt under study may indicate the formation of a hydrate from an anhydrate. […] Exemplary methods for collecting DVS data are set forth in Example 26.
Dynamic vapor sorption data was collected on a Surface Measurement System DVS Intrinsic instrument. The samples were not dried prior to analysis. Sorption and desorption data were collected over a range from 5% to 95% RH in 10% RH increments under a nitrogen purge. The equilibrium criteria used for the analyses were 0.001 dm/dt weight change in 5 minutes with a minimum step time of 30 minutes and maximum equilibration time of 180 minutes with a 3 minute data logging interval. Data were not corrected for the initial moisture content of the sample.

Series [3] in a line: Differential scanning calorimetry (DSC), thermal decomposition / endothermic transition. The note with it: for Decomposition temperature (DSC): 10° C./min; for First significant endothermic transition (DSC): indicative of thermal degradation or solid-state transformation. How it is done: (§1) Differential scanning calorimetry (DSC) is a thermoanalytical technique where the difference in the amount of heat required to increase the temperature of a sample and reference is measured as a function of temperature. Using this technique, phase transitions of a sample can be measured such as melting point. Decomposition can also be observed by DSC as can dehydration events. In the context of DSC measurements, there is also variability and the term “about” means ±1° C., and such variability is to be understood whether a DSC measurement is prefaced by “about” or not unless specified otherwise. Exemplary methods for collecting DSC data are set forth in Example 21. Thermogravimetric analysis, sometimes referred to as, thermal gravimetric analysis (TGA) is a thermal method of thermal analysis where the mass of a sample is measured as a function of time as the sample temperature changes. For example, when samples disclosed herein are heated and a loss in mass is measured prior to decomposition, this is likely indicative of the loss of water from the sample and may indicate that the sample being heated is a hydrate. Exemplary methods for collecting TGA are set forth in Example 23.
DSC was performed using a Mettler-Toledo DSC3+ differential scanning calorimeter. A tau lag adjustment is performed with indium, tin, and zinc. The temperature and enthalpy are adjusted with octane, phenyl salicylate, indium, tin and zinc. The adjustment is then verified with octane, phenyl salicylate, indium, tin, and zinc. The sample was placed into a hermetically sealed aluminum DSC pan, and the weight was accurately recorded. The pan was then inserted into the DSC cell. A weighed aluminum pan configured as the sample pan was placed on the reference side of the cell. The pan lid was pierced prior to sample analysis. Samples were analyzed from 30° C. to 350° C. or 30° C. to 250° C., both at 10° C./min.
On the technique in general: In DSC, transitions show as peaks or steps in heat flow.

Series [4] can be described thus: Final pH of the solubility sample solutions in aqueous media. The note with it: for pH of the solubility sample, 0.9% Sodium Chloride: 0.9% sodium chloride (blank 5.8); for pH of the solubility sample, 5% Dextrose: 5% dextrose (blank 4.7); for pH of the solubility sample, FaSSGF: FaSSGF (blank 1.5, 1.6); for pH of the solubility sample, FaSSIF: FaSSIF (blank 6.5, 6.5); for pH of the solubility sample, FeSSIF: FeSSIF (blank 4.9, 5.0); for pH of the solubility sample, Water: water (blank 6.3). How it is done:
25HC3S salts were weighed in 8 mL or 4 mL glass vials with Teflon coated screw caps. Aliquots of each solvent were added to each sample and vortexed for about one minute until excess solid remained. Samples were placed on shaker at room temperature with 210 motion per minute shaking.
After one day, samples were pulled and checked if excess solid was present. About 1.5 mL aliquot of each sample was centrifuged at 12000 rpm for 12 to 15 minutes. […] Aliquots of the top clear solution of each centrifuged sample in MeOH, EtOH, IPA and ACN were diluted with diluent (water:MeOH 95:5) and assayed by HPLC. Samples of the salts in aqueous media were assayed by HPLC without dilution.
5.1 Solubility of 25HC3S Salts in Aqueous Media

Series [5] can be described thus: Thermogravimetric analysis (TGA), weight loss. How it is done: as §1
TG analysis was performed using a Mettler-Toledo TGA/DSC3 analyzer. Temperature and enthalpy adjustments were performed using indium, tin, and zinc, and then verified with indium. The balance was verified with calcium oxalate. The sample was placed in an open aluminum pan. The pan was hermetically sealed, the lid pierced, then inserted into the TG furnace. A weighed aluminum pan configured as the sample pan was placed on the reference platform. The furnace was heated under nitrogen. Each sample was heated from ambient temperature to 350° C. at 10° C./min. Although thermograms are plotted by reference temperature (x-axis), results are reported according to sample temperatures.

The mark [6] stands for this setting: listed as 25HC3S diethanolamine.

On to `CC(CCCC(C)(C)O)C1CCC2C3CC=C4CC(OS(=O)(=O)O)CCC4(C)C3CCC12C` (centres unmarked) [Salt #3], for which the “Powder flowability, overall (in words)” value in series [1] (listed as zinc) is reported as “next group”. Moreover, in series [1] (listed as 25HC3S zinc), the “Angle of Repose Rank Order” value is listed as 10, the “Hausner Ratio Rank Order” value is 5 and the “Overall Rank Order (Total Score)” value came to 15. In addition, in series [2] (between 25% and 45% relative humidity), the “Water uptake (change in mass), 25% to 45% RH” value is recorded as “about 2.8%”. The “Decomposition temperature (DSC)” value in series [3] (listed as crystalline 25HC3S zinc) was “about 119 °C”. In addition, in series [4] (listed as 25HC3S zinc), the “pH of the solubility sample, 0.9% Sodium Chloride” value was 6.4; the “pH of the solubility sample, 5% Dextrose” value is 7.1; the “pH of the solubility sample, FaSSIF” value came out at 6.5; the “pH of the solubility sample, Water” value is listed as 7.4. Also, the “pH of solubility sample solution in 0.9% sodium chloride” value in series [4] (0.9% sodium chloride (medium pH 5.8)) is reported as 6.4. Also, in series [4], the “pH of the solubility sample, FaSSGF” value is on record as 1.6 and the “pH of the solubility sample, FeSSIF” value is on record as 5.0. The “pH of solubility sample solution in water” value in series [4] (water) was determined as 7.4. Moreover, the “Weight loss by TGA, about […] C. to about 190° C.” value in series [5] (about […] C. to about 190° C., may be decomposition) came to 11.5%. The “Weight loss by TGA, room temperature to about 130° C.” value in series [5] (room temperature to about 130° C.) is on record as “about 5.1%”.

Consider `CC(CCCC(C)(C)O)C1CCC2C3CC=C4CC(OS(=O)(=O)O)CCC4(C)C3CCC12C` (centres unmarked) [Salt #7], for which the “Powder flowability, overall (in words)” value in series [1] (listed as meglumine) is reported as “next group”. Also, in series [1] (listed as 25HC3S meglumine), the “Angle of Repose Rank Order” value turned out to be 5, the “Hausner Ratio Rank Order” value is recorded as 12 and the “Overall Rank Order (Total Score)” value turned out to be 17. In series [2] (stable plateau above 35% relative humidity), the “Water uptake, plateau above 35% RH” value is listed as “about 3%”. In addition, in series [4] (listed as 25HC3S meglumine), the “pH of the solubility sample, 0.9% Sodium Chloride” value was determined as 7.2; the “pH of the solubility sample, 5% Dextrose” value is recorded as 7.2; the “pH of the solubility sample, FaSSIF” value came out at 6.5; the “pH of the solubility sample, Water” value was 8.5. For the same compound, in series [4], the “pH of the solubility sample, FaSSGF” value worked out at 1.6 and the “pH of the solubility sample, FeSSIF” value is listed as 5.0. Moreover, the “Loss of moisture by TGA, starting with ambient” value in series [5] (starting with ambient) is “about 3.2%”.

Take `CC(CCCC(C)(C)O)C1CCC2C3CC=C4CC(OS(=O)(=O)O)CCC4(C)C3CCC12C` (centres unmarked) [Salt #9]: the “Powder flowability, overall (in words)” value in series [1] (listed as benzathine) is “next group”. Also, in series [1] (listed as 25HC3S benzathine), the “Angle of Repose Rank Order” value worked out at 12, the “Hausner Ratio Rank Order” value was 7 and the “Overall Rank Order (Total Score)” value came out at 19. Also, the “Water uptake (weight gain) up to about 95% relative humidity” value in series [2] (5% to about 95% RH, listed as crystalline 25HC3S benzathine) is on record as “less than 0.5%”. In addition, in series [2] (RH reduced from 95% to 5%, listed as crystalline 25HC3S benzathine), the “Reversibility of water uptake (in words)” value is on record as “reversibly lose all that water”. Moreover, in series [2] (listed as crystalline 25HC3S benzathine), the “Hygroscopicity (in words)” value is given as “low hygroscopicity”. Besides, the “First significant endothermic transition (DSC)” value in series [3] (listed as benzathine) is roughly 211 °C. Also, in series [4] (listed as 25HC3S benzathine), the “pH of the solubility sample, 0.9% Sodium Chloride” value stood at 8.2; the “pH of the solubility sample, 5% Dextrose” value is 7.1; the “pH of the solubility sample, FaSSIF” value is recorded as 6.5; the “pH of the solubility sample, Water” value is on record as 8.6. In addition, in series [4], the “pH of the solubility sample, FaSSGF” value amounted to 1.6 and the “pH of the solubility sample, FeSSIF” value turned out to be 5.0. In series [5] (up to 200° C., listed as crystalline 25HC3S benzathine), the “Weight loss by TGA up to 200° C.” value was determined as 0.4%.

Take `CC(CCCC(C)(C)O)C1CCC2C3CC=C4CC(OS(=O)(=O)O)CCC4(C)C3CCC12C` (centres unmarked) [Salt #10]: the “Powder flowability, overall (in words)” value in series [1] (listed as diethanolamine) was “poorer flowability”. Also, in series [1] (setting [6]), the “Angle of Repose Rank Order” value was found to be 14, the “Hausner Ratio Rank Order” value came to 9 and the “Overall Rank Order (Total Score)” value is listed as 23. Besides, in series [2], the “Relative humidity above which the salt is hygroscopic” value is “above 75 % relative humidity”. Moreover, in series [3] (listed as diethanolamine), the “First significant endothermic transition (DSC)” value is roughly 181 °C. Moreover, in series [4] (setting [6]), the “pH of the solubility sample, 0.9% Sodium Chloride” value is reported as 7.9; the “pH of the solubility sample, 5% Dextrose” value was 7.2; the “pH of the solubility sample, FaSSIF” value amounted to 6.5; the “pH of the solubility sample, FeSSIF” value came out at 4.9. Further, in series [4] (setting [6]), the “pH of the solubility sample, Water” value was found to be 8.2. In addition, the “pH of the solubility sample, FaSSGF” value in series [4] stood at 1.6. Besides, the “Weight loss by TGA up to 175° C. (in words)” value in series [5] (up to 175° C.) was “Negligible weight loss”.

Take `CC(CCCC(C)(C)O)C1CCC2C3CC=C4CC(OS(=O)(=O)O)CCC4(C)C3CCC12C` (centres unmarked) [Salt #13]: in series [1] (listed as magnesium), the “Powder flowability, overall (in words)” value is given as “poorer flowability”. In series [1] (listed as 25HC3S magnesium), the “Angle of Repose Rank Order” value was 7, the “Hausner Ratio Rank Order” value was found to be 14 and the “Overall Rank Order (Total Score)” value was 21. Further, the “Decomposition temperature (DSC)” value in series [3] (listed as crystalline 25HC3S magnesium) is “about 139 °C”. In series [4] (listed as 25HC3S magnesium), the “pH of the solubility sample, 0.9% Sodium Chloride” value is given as 8.3; the “pH of the solubility sample, 5% Dextrose” value stood at 7.1; the “pH of the solubility sample, FaSSIF” value is 6.5; the “pH of the solubility sample, FeSSIF” value was found to be 4.9. Moreover, in series [4] (listed as 25HC3S magnesium), the “pH of the solubility sample, Water” value came to 8.7. Moreover, the “pH of the solubility sample, FaSSGF” value in series [4] came to 1.6. For the same compound, the “Weight loss by TGA up to 127° C.” value in series [5] (up to 127° C.) is recorded as “about 1.5%”.

(Values after patent US20260317367A1, “SALTS INCLUDING CRYSTALLINE SALTS OF 25-HYDROXY-CHOLEST-5-EN-3-SULFATE AND METHODS FOR PREPARING SAME” (Durect Corporation, priority 2022, published 2026).)
